Measurements reported in publication PMC8117417, “Novel Trifluoromethyl Pyrimidinone Compounds With Activity Against Mycobacterium tuberculosis” (Frontiers in Chemistry, 2021).
In brackets after ≈: the same amount, converted by molar mass. Several values for one entry are separate records, joined by “and”; a condition that tells them apart may be missing. Equal values may be shown once.

Legend:
HepG2 human liver cells = experiment: Cytotoxicity against HepG2 cells (CellTiter-Glo); type: cell-based; conditions: concentration required to inhibit growth of HepG2 cells by 50%, 72 h exposure
Description: Cytotoxicity was measured after 72 h of compound exposure at 37°C and 5% CO2 using CellTiter-Glo (Promega).

M. tuberculosis H37Rv = experiment: Minimum inhibitory concentration (IC90) against fluorescent M. tuberculosis in liquid culture; conditions: for MIC: MTB IC90 assay, Figure 1 primary hits and reference drugs in this assay; for IC90: read-out: MTB IC90
[1] = tested on: Staphylococcus aureus RN4220; experiment: Spectrum: MIC99 on solid medium, agar serial dilution; type: cell-based; parameters: unit not given here; conditions: minimum concentration required to reduce CFUs by 99%, values of two independent runs
[2] = tested on: Bacillus subtilis Marburg; experiment: as above; type: cell-based; parameters: unit not given here; conditions: minimum concentration required to reduce CFUs by 99%, values of two independent runs
[3] = tested on: Mycobacterium smegmatis mc^2155; experiment: as above; type: cell-based; parameters: unit not given here; conditions: minimum concentration required to reduce CFUs by 99%, two independent runs
[4] = tested on: Saccharomyces cerevisiae Y187; experiment: as above; type: cell-based; parameters: unit not given here; conditions: minimum concentration required to reduce CFUs by 99%, values of two independent runs
[5] = tested on: Pseudomonas aeruginosa BAA 47; experiment: as above; type: cell-based; parameters: unit not given here; conditions: minimum concentration required to reduce CFUs by 99%, two independent runs
K. pneumoniae = experiment: as above; type: cell-based; parameters: unit not given here; conditions: minimum concentration required to reduce CFUs by 99%, two independent runs
Description: Minimum inhibitory concentration to inhibit growth of 99% (MIC99) on solid medium was determined using the agar serial dilution method. Late log phase cultures were plated at ~10^5 colony-forming units (CFU)/mL onto solid medium containing 2-fold serial dilutions of compounds. The MIC99 is defined as the lowest concentration with ≤1% growth.

Escherichia coli DH5α = experiment: Spectrum: MIC99 on solid medium, agar serial dilution; type: cell-based; parameters: unit not given here; conditions: minimum concentration required to reduce CFUs by 99%, two independent runs
[6] = concentration required to inhibit M. tuberculosis growth by 90%, aerobic culture, 5 days, 7H9-OADC-Tw

SMILES | IC50 (HepG2 human liver cells; Homo sapiens, HepG2, 72 h) | MIC (M. tuberculosis H37Rv) | IC90 (M. tuberculosis H37Rv; [6]) | MIC99 S. aureus [1] | MIC99 B. subtilis [2] | MIC99 M. smegmatis [3] | MIC99 S. cerevisiae [4] | MIC99 P. aeruginosa [5] | MIC99 K. pneumoniae (K. pneumoniae) | melting point | MIC99 E. coli (Escherichia coli DH5α) | IC50 (HepG2 human liver cells) | HepG2 IC50 (HepG2 human liver cells) | MTB IC90 (M. tuberculosis H37Rv; [6])
O=c1[nH]c(-c2ccccn2)nc(C(F)(F)F)c1Cc1ccc(F)cc1 [Compound 5, 5-(4-Fluorobenzyl)-2-(Pyridin-2-yl)-6-(Trifluoromethyl)Pyrimidin-4(3H)-One] | 3.2 ± 1.5 µM | 1.7 ± 0.41 µM (≈ 0.594 µg/mL) | 1.7 ± 0.41 µM | 1.6, 1.6 | 12.5 and 6.3 | >100 | 3.1, 3.1 | >100 | >100 | 183 to 185 °C | >100 |  |  | 
Cc1c(C(F)(F)F)nc(-c2ccccn2)[nH]c1=O [Compound 10, 5-Methyl-2-(Pyridin-2-yl)-6-(Trifluoromethyl)Pyrimidin-4(3H)-One] | 7.3 µM | 2.9 ± 0.47 µM (≈ 0.74 µg/mL) | 2.9 µM | 12.5, 12.5 | 12.5, 12.5 | 25 | 6.3 and 12.5 | >100 | >100 |  | >100 | 5.4 ± 3.1 µM |  | 
Cc1c(C(F)(F)F)nc(-c2ncccc2O)[nH]c1=O [Compound 33, 2-(3-Hydroxypyridin-2-yl)-5-Methyl-6-(Trifluoromethyl)Pyrimidin-4(3H)-One] | 3.2 ± 1.6 µM |  | 2.5 ± 1.1 µM | 3.1, 3.1 |  | 25 | 3.1, 3.1 | >100 | >100 | 176 to 178 °C | >100 |  |  | 
Cc1c(C(F)(F)F)nc(-c2ccccc2C(F)(F)F)[nH]c1=O [Compound 42, 5-Methyl-6-(Trifluoromethyl)-2-(2-(Trifluoromethyl)Phenyl)pyrimidin-4(3H)-One] | > 100 µM |  | > 20 µM |  |  |  |  |  |  | 168 to 170 °C |  |  |  | 
Cc1cccc(C)c1-c1nc(C(F)(F)F)c(C)c(=O)[nH]1 [Compound 43, 2-(2,6-Dimethylphenyl)-5-Methyl-6-(Trifluoromethyl)Pyrimidin-4(3H)-One] | > 100 µM |  | > 20 µM |  |  |  |  |  |  | 174 to 175 °C |  |  | no cytotoxicity | no antibacterial activity
Cc1c(C(F)(F)F)nc(-c2ccccc2OC(F)(F)F)[nH]c1=O [Compound 44, 5-Methyl-2-(2-(Trifluoromethoxy)Phenyl)-6-(Trifluoromethyl)Pyrimidin-4(3H)-One] | > 100 µM |  | > 20 µM |  |  |  |  |  |  | 167 to 168 °C |  |  |  | 
Cc1c(C(F)(F)F)nc(-c2ccccc2O)[nH]c1=O [Compound 46, 2-(2-Hydroxyphenyl)-5-Methyl-6-(Trifluoromethyl)Pyrimidin-4(3H)-One] | 44 ± 7.8 µM |  | > 20 µM |  |  |  |  |  |  | 270 to 271 °C |  |  |  | 
Cc1c(Cc2ccccc2)nc(-c2ccccn2)[nH]c1=O [Compound 47, 6-Benzyl-5-Methyl-2-(Pyridin-2-yl)Pyrimidin-4(3H)-One] | 9.8 ± 5.7 µM |  | 5.7 ± 0.14 µM |  |  |  |  |  |  | 120 to 121 °C |  |  |  | 
Cc1c(-c2ccccc2)nc(-c2ccccn2)[nH]c1=O [Compound 48, 5-Methyl-6-Phenyl-2-(Pyridin-2-yl)Pyrimidin-4(3H)-One] | 9.7 ± 5.5 µM |  | 9.4 ± 0.67 µM |  |  |  |  |  |  | 140 to 141 °C |  |  |  | 
Cc1cnc(-c2ccccn2)[nH]c1=O [Compound 50, 5-Methyl-2-(Pyridin-2-yl)Pyrimidin-4(3H)-One] | 50 ± 13 µM |  | > 20 µM |  |  |  |  |  |  | 148 to 149 °C |  |  |  | 
O=c1[nH]c(-c2ccccn2)nc(C(F)(F)F)c1Cc1ccccc1 [Compound 52, 5-Benzyl-2-(Pyridin-2-yl)-6-(Trifluoromethyl)Pyrimidin-4(3H)-One] | 7.3 ± 4.2 µM |  | 2.8 ± 0.78 µM |  |  |  |  |  |  | 173 to 174 °C |  |  |  | 
O=c1[nH]c(-c2ccccn2)nc(C(F)(F)F)c1-c1ccc(F)cc1 [Compound 53, 5-(4-Fluorophenyl)-2-(Pyridin-2-yl)-6-(Trifluoromethyl)Pyrimidin-4(3H)-One] | 11 ± 6.9 µM |  | 3.8 ± 1.6 µM | 3.1, 3.1 | 6.3, 6.3 | >100 |  | >100 | >100 | 217 to 220 °C | >100 |  |  | 
O=c1[nH]c(-c2ccccn2)nc(C(F)(F)F)c1-c1ccccc1 [Compound 54, 5-Phenyl-2-(Pyridin-2-yl)-6-(Trifluoromethyl)Pyrimidin-4(3H)-One] | 11 µM |  | 4.5 ± 0.14 µM |  |  |  |  |  |  | 258 to 259 °C |  | 10 ± 6.4 µM |  | 
CCc1c(C(F)(F)F)nc(-c2ccccn2)[nH]c1=O [Compound 55, 5-Ethyl-2-(Pyridin-2-yl)-6-(Trifluoromethyl)Pyrimidin-4(3H)-One] | 6.1 ± 1.3 µM |  | 3.7 ± 0.26 µM | 6.3 and 5.0 | 6.3 and 5.0 | 100 | 3.1 and 5.0 | >100 | >100 | 122 to 124 °C | >100 |  |  | 
O=c1[nH]c(-c2ccccn2)nc(C(F)(F)F)c1C1CCCCC1 [Compound 58, 5-Cyclohexyl-2-(Pyridin-2-yl)-6-(Trifluoromethyl)Pyrimidin-4(3H)-One] | 2.9 ± 0.28 µM |  | 4.1 ± 0.28 µM |  |  |  |  |  |  | 220 to 221 °C |  |  |  | 
